# Reference: PubChem BioAssay AID179 (DTP/NCI, 2004)
# Values joined by “and” are separate entries in the source; they are usually repeats but may differ in a detail not shown here. Identical values can stand only once. Active and inactive are the calls of the source.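 Rule for the calls: active = compounds giving half or more protection of infected cells from virus-caused growth loss, again on retest; inactive = the rest.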 Where a SMILES comes first, the peptide text is derived from it. The star is where a group is joined. Cbz = O=C(OCc1ccccc1)*
# Tested on: CEM cells HIV-1 protection, formazan growth assay
# Assay: NCI AIDS Antiviral Assay
# Details: for IC50: measured here: growth of uninfected CEM cells
# In short: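 Human CEM cells, uninfected and HIV-1-infected, exposed to five drug concentrations; growth measured by soluble formazan assay and scored as percent protection from infection, with protecting compounds retested.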
SMILES,outcome,EC50,IC50
O=C1C2C=CC1C1C(=O)OC(=O)C21 (stereo unspecified),inactive,,
CCOc1ccc2nc(NC(=O)C(=O)C(C(=O)c3ccccc3-c3ccccc3)C3OC(=O)c4ccccc43)sc2c1 (stereo unspecified),,> 309 µM,132 µM
Cc1ccc(S(=O)(=O)n2cc(C#N)c(C#N)c2)cc1,,> 200 µM,57.5 µM
O=S(=O)(O)CS(=O)(=O)O,,> 200 µM,> 200 µM
CC(C)(C)OC(=O)Cn1ncn(NC(=O)Cc2ccccc2)c1=S,,> 200 µM,> 200 µM
CCCCCCCN=C(N)CSSCC(N)=NCCCCCCC,,> 331 µM,10.2 µM
CC(=O)Nc1c(C(=N)C#N)ncn1CCO,,> 200 µM,> 200 µM
Nc1cc(C(F)(F)F)ccc1S,,> 200 µM,22.9 µM
CCSc1c(S)cnn(C)c1=O,,23.4 µM,30.9 µM
Cc1cc(=O)[nH]c(CNC(=O)c2cccc3ccccc23)n1,,> 851 µM,> 851 µM
O=c1[nH]c2ccccc2c(O)c1Cc1ccccc1,,> 200 µM,> 200 µM
[N-]=[N+]=Nc1c(Br)c(=O)[nH]c(=O)n1COCCO,inactive,,
Cc1c[nH]c(C(=O)O)c1-c1cccn1-c1ccc(Cl)cc1[N+](=O)[O-],,> 200 µM,87.1 µM
Cn1c(=O)c2nc3c(nc2n(C)c1=O)oc1ccccc13,inactive,,
Cc1c(-c2ccccc2)oc2c(C(=O)OCCN3CCCCC3)cccc2c1=O,inactive,,
CCN(CC)CCC(=O)NC1c2ccccc2Oc2c(C)cccc21 (stereo unspecified),,> 275 µM,58.9 µM
O=C(NCc1ccccc1)c1cc2cc(O)c(O)cc2cn1,,> 200 µM,5.13 µM and > 8.32 µM
COC(=O)C12C3C4C1C1C2C3C41C(=O)OC(C)(C)C (stereo unspecified),,> 257 µM,> 257 µM
N#C/C(=C\c1c(Cl)cccc1Cl)c1nc2ccccc2[nH]1,,> 200 µM,24.5 µM
COc1ccccc1-c1cc(=O)c2ccc(OC)c(OC)c2o1,,> 200 µM,33.1 µM
CCOC(=O)c1cc2sc(NC(=O)c3ccccc3)nc2o1,inactive,,
CCOC(=O)CSc1nnc(CSc2nc(-c3ccccc3)c(-c3ccccc3)[nH]2)n1-c1ccccc1,,> 13.5 µM,> 13.5 µM

SMILES,outcome,EC50,IC50
CCOC(=O)Nc1cc2c(c(N)n1)N=C(c1ccc3ccccc3c1)CN2,,> 200 µM,0.309 µM
O=C(c1ccccc1)N1C2CCC1C(C(F)(F)F)=C2C(F)(F)F,inactive,,
C1=CC(=NN=P(c2ccccc2)(c2ccccc2)c2ccccc2)C=C1,inactive,,
NC(N)=NS(=O)(=O)c1ccc(Nc2c3ccccc3nc3c(C(=O)N4CCN(CCO)CC4)cccc23)cc1,,> 40.7 µM,> 40.7 µM
COC(=O)c1ncn(Cc2ccccc2)c1N,,> 200 µM,> 100 µM
Oc1c(C(O)N2CCOCC2)cc(C(O)N2CCOCC2)c(O)c1O (stereo unspecified) (tested in a mixture with another compound),,> 200 µM,1.91 µM
COc1ccc2c(c1)OC(C)(C)C1c3cc(O)c(OCc4ccccc4)cc3OC21 (stereo unspecified),,> 200 µM,16.6 µM
O=C1C=C(C2=CC(=O)C(=O)c3ccccc32)c2ccccc2C1=O,,> 151 µM,1.91 µM
CC(=O)NC(CCCCN(Cc1ccccc1)C(=O)N(CCCl)N=O)C(=O)NCc1ccccc1 (stereo unspecified),,> 72.4 µM,> 72.4 µM
Nc1nc(CC2(O)CCCCC2)cc(-c2ccccc2)n1,,> 1.95 µM,> 1.95 µM
CCCCCCCCCc1cc(-c2ccc(C=O)s2)sc1-c1ccc(C=O)s1,,> 200 µM,2.75 µM
CC(=O)c1c2c(cc3c1CC1(C3)Cc3cc4c(c(C(C)=O)c3C1)CCC4)CCC2,,> 18.6 µM,> 18.6 µM
COc1c(OC)c(C2(O)C(=O)N(C)c3ccccc32)c2c(c1C1(O)C(=O)N(C)c3ccccc31)OCO2 (stereo unspecified),,> 200 µM,> 200 µM
C=CCn1c(N)c(N=O)c(=O)n(CC)c1=O,,> 200 µM,> 200 µM
Cn1cc(NC(=O)c2cc(NC(=O)Nc3cc(C(=O)Nc4cc(C(=O)Nc5ccc6cc(S(=O)(=O)O)cc(S(=O)(=O)O)c6c5)n(C)c4)n(C)n3)nn2C)cc1C(=O)Nc1ccc2cc(S(=O)(=O)O)cc(S(=O)(=O)O)c2c1,,6.17 µM,> 100 µM
O=[N+]([O-])c1ccc(C=Cc2ccc(C(F)(F)F)cc2)cc1.[C-]#[O+].[C-]#[O+].[C-]#[O+].[Cr],inactive,,
Nc1nc2c3nc(Nc4ccccc4)sc3nc(=O)n2c2sc(Nc3ccccc3)nc12,,> 5.89 µM,> 5.89 µM
Oc1ccccc1C=NCCN=Cc1ccccc1O.[CH3][Sn]([CH3])([Cl])[Cl],inactive,,
O=C1/C(=C\c2ccc([N+](=O)[O-])cc2)Sc2scc(-c3ccc(O)c(O)c3)[n+]21,,> 200 µM,5.25 µM
COCc1c(C(=O)NCCO)[n+](=O)c2ccccc2n1[O-],,> 87.1 µM,> 87.1 µM
OC1c2ccccc2-c2nc3cccccc-3c21 (stereo unspecified),,> 155 µM,24 µM
COC(=O)CCCCC=C(c1cc(Cl)c(OC)c(C(=O)OC)c1)c1cc(Cl)c(OC)c(C(=O)OC)c1,,6.76 µM,60.3 µM

SMILES,outcome,EC50,IC50
O=[N+]([O-])c1cccc(SSc2cccc([N+](=O)[O-])c2)c1,,> 200 µM and 20.4 µM,4.57 µM and 34.7 µM and 6.31 µM
CCOC(=O)c1ccc(-n2nc(C)cc(Cl)c2=O)cc1,,> 123 µM,23.4 µM
N#CC1CC2(C(=O)C1=O)c1ccccc1-c1ccccc12 (stereo unspecified),inactive,,
CCCC(=O)OC1CN2CC[C@H](O)C2C(O)[C@@H]1O (stereo partly specified),,2.29 µM,955 µM
COC(C)(C)C1=CCC(C)CC1 (stereo unspecified),,> 100 µM,> 100 µM
CC(C)CCC[C@@H](C)C1CCC2[C@@H]3CC(OS(=O)(=O)O)C4C[C@@H](OC5OC(CO)C(O)C(O)C5O)CC[C@]4(C)C3CC[C@@]21C (stereo partly specified),,> 37.2 µM,6.03 µM
CCOC(=O)C1=CC(C)(C(=O)OCC)Nc2c(nc(SC)n(C)c2=O)N1 (stereo unspecified),,> 200 µM,145 µM
O=C(Nc1nnc(-c2ccccc2)s1)c1cc(=O)c2cc([N+](=O)[O-])ccc2o1,,> 200 µM,> 200 µM
O=C1NC2ON=C(c3ccccc3)C2C2ON=C(c3ccccc3)N12 (stereo unspecified),,> 200 µM,37.2 µM
c1ccc(C2C3=C(Nc4ncnn42)c2ccccc2C3)cc1 (stereo unspecified),,> 12.6 µM,7.24 µM
O=C1CN(O)C(c2ccccc2)=c2cc(Cl)ccc2=N1,,> 200 µM,> 200 µM
COc1ccc2c(C)cc(N/N=C/c3ccc(C)s3)nc2c1,,> 200 µM,9.12 µM
O=c1c2cc([N+](=O)[O-])ccc2n2n1CCCC2,,> 200 µM,> 200 µM
CC1=C(C(=O)Nc2ccccc2C)C(c2ccccc2C)C(C(=O)Nc2ccccc2C)=C(C)N1,,> 15.5 µM,> 15.5 µM
CC(=O)C1C(=O)C(=O)N(CCN2C(=O)C(=O)C(C(C)=O)C2=O)C1=O (stereo unspecified),,> 11.2 µM,> 11.2 µM
Cc1nc(N)sc1C(=O)/C=C/c1ccc([N+](=O)[O-])cc1,,> 871 µM,57.5 µM
CNc1c(Br)cc(/C=C2\C=Cc3ccccc32)cc1Br,,> 9.55 µM,> 9.55 µM
Cc1ccc(-n2c(=S)n(-c3ccccc3C)c3nc4ccccc4nc2/c3=N\Nc2ccccc2)cc1,,> 200 µM,123 µM
CC(=O)[C@@]12OC(C)(c3ccco3)O[C@@H]1C[C@H]1[C@@H]3CCC4=CC(=O)CC[C@]4(C)[C@H]3CC[C@@]12C (stereo partly specified),,> 200 µM,158 µM
O=S1(=O)OCCOS(=O)(=O)C1(Br)Br,,> 363 µM,> 363 µM
C/C(C=C(C#N)C#N)=C\c1ccc([N+](=O)[O-])cc1,,> 11.5 µM,> 11.5 µM
O=C(O)CCC(NC(=O)OCc1ccccc1)C(=O)NC(Cc1cnc[nH]1)C(=O)O (stereo not drawn) (Cbz-Glu-His-OH; configuration not given here),,> 200 µM,> 200 µM

SMILES,outcome,EC50,IC50
CCOc1cc2c(cc1O)CC[C@@H]1[C@@H]2CC[C@]2(C)C(OS(=O)OC3CC[C@@H]4[C@H]5CCc6cc(O)c(OCC)cc6[C@@H]5CC[C@@]34C)CC[C@@H]12 (stereo partly specified),,> 2 µM,0.537 µM
CC(C)(C)COc1ccc2c(c1)-c1nc-2nc2[nH]c(nc3nc(nc4[nH]c(n1)c1ccc(OCC(C)(C)C)cc41)-c1cc(OCC(C)(C)C)ccc1-3)c1ccc(OCC(C)(C)C)cc21,,> 8.32 µM,> 8.32 µM
CCCCCCCCCCCCCCCCCC(=O)OC(COC(=O)COCCOCCOCCOCCOCCOC)COP(=O)([O-])OCC[N+](C)(C)C (stereo unspecified),inactive,,
CC1=C(C(=O)Nc2ccccc2C)C(c2ccc(Cl)cc2)C(C(=O)Nc2ccccc2C)=C(C)N1,,> 2.95 µM,> 2.95 µM
Cc1cc(NC(=O)NC(=O)c2ccccc2[N+](=O)[O-])ccc1Oc1ncc(Cl)cn1,inactive,,
COC1=CC(=O)C2C=C3C(CO)=CCC(O)C3(C)CC2C1=O (stereo unspecified),,> 200 µM,3.8 µM
COc1cc2c(OC)c(-c3c(C)cc4c(C(C)C)c(OC)c(OC)cc4c3OC)c(C)cc2c(C(C)C)c1OC,inactive,,
Cc1cc(C)c(NC(=O)c2cnccn2)c(=O)o1,,> 200 µM,> 200 µM
C=C(CN(C)C)C(=O)c1ccc(OC2OC(COC(C)=O)C(OC(C)=O)C(OC(C)=O)C2OC(C)=O)cc1 (stereo unspecified),,> 200 µM,3.24 µM
Cc1cccc2c1CC(C1OC(=O)c3c(C)cccc31)C2=O (stereo unspecified),,> 200 µM,120 µM
Cc1c2c(cc3c(=O)ccn(CCN(C)C)c13)c(=O)ccn2CCN(C)C,,> 135 µM,1 µM
Cn1c(=O)cc(C=Nc2ccc(O)cc2)c2ccccc21,,> 200 µM,1.74 µM
CCCCCCCN=c1ssc(=O)n1CCCCCCC,,> 200 µM,8.91 µM
COC1Cc2ccccc2C1O (stereo unspecified),inactive,,
COC(=O)NC1=Nc2ccccc2-c2ccccc2N1,,> 200 µM,123 µM
CC1(C)C=[N+]([O-])C(C)(C)N1,,> 200 µM,> 200 µM
CCC1(O)C(=O)OCc2c1cc1n(c2=O)Cc2cc3cc4c(cc3nc2-1)OCO4 (stereo unspecified),,> 0.1 µM,0.00562 µM
COc1ccc(C2C3C(=O)OCCOC(=O)C3C2c2ccc(OC)c(OC)c2)cc1OC (stereo unspecified),,> 91.2 µM,83.2 µM
CNC(=O)c1ncn(C2OC(CO)C(O)C2O)n1 (stereo unspecified),,> 200 µM,> 200 µM
